Test results reported in US20250353873A1, “COMPOUNDS AND METHODS FOR MODULATING APOE EXPRESSION” (Ionis Pharmaceuticals, Inc., priority 2024, published 2025).
Strand notation (5' to 3'): a small letter for the sugar, then the base; units joined by * are phosphorothioate-linked, units joined directly phosphodiester-linked; [ ] holds rarer units or linkages, { } end groups; capitals alone tell only the bases. [ms] = mesyl phosphoramidate linkage; e = 2'-O-(2-methoxyethyl) (MOE); [5mC] = 5-methylcytosine; d = 2'-deoxy (DNA)

Tests used:
[1] = system: human APOE RNA; assay: Dose-dependent inhibition of human APOE RNA in HepG2 cells, electroporation, 24 hours (Example 6); assay type: cell-based
How it was run: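 HepG2 cells, 50,000 per well, electroporated with various oligonucleotide concentrations. APOE RNA measured with primer probe set RTS3073, normalized to GAPDH (RTS104), expressed as % of untreated control; IC50 then calculated.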

[2] = system: human APOE RNA; assay: Activity in APOE C57BL/6NTac-Apoeem7250 knock-in mice, single ICV bolus, 16 weeks (Example 12); assay type: in vivo; settings: single ICV bolus 300 μg, 16 weeks post treatment, normalized to mouse Ppia
How it was run: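 Knock-in mice (3-4 per group) received one ICV bolus of 300 μg oligonucleotide, PBS as control. After 16 weeks, human APOE RNA in cortex and spinal cord measured by RT-qPCR, normalized to mouse Ppia, and reported as % of PBS control.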

[3] = system: human APOE RNA; assay: Activity in APOE C57BL/6NTac-Apoeem7250 knock-in mice, single ICV bolus, 4 weeks (Example 10); assay type: in vivo; settings: single ICV bolus 300 μg
How it was run: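 Knock-in mice (2–4 per group) received one 300 μg ICV bolus of oligonucleotide or PBS. After four weeks, human APOE RNA in cortex and spinal cord measured by RT-qPCR (primer probe set RTS3073), normalized to mouse Ppia, expressed as % of PBS controls.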

[4] = system: human APOE RNA; assay: Activity in APOE C57BL/6NTac-Apoeem7250 knock-in mice, single ICV bolus, 2 weeks (Example 9); assay type: in vivo; settings: single ICV bolus 300 μg
Method: Modified oligonucleotides described above were tested in the APOE knock-in mouse model C57BL/6NTac-Apoeem7250_B-A02(APOE)Tac, a heterozygous APOE mouse model. APOE knock-in mice used in this study express the full-length human APOE gene knocked into the mouse locus. Humanization of APOE gene was done via CRISPR/Cas-9-mediated gene editing, allowing for generation of a model with constitutive expression of human APOE gene. Targeting strategy was based on NCBI transcripts NM_009696.4 (mouse) and NM_000041.4 (human). Mouse genomic sequence from exon 1 to exon 4 (including the 5′ and 3′ UTRs) was replaced with the human counterpart from 141 bp upstream of exon 1 to 28 bp downstream of exon 4. A plasmid allowing expression of Cas9 mRNA, specific gRNA, and the puromycin resistance cassette, and a plasmid containing the homology regions of the mouse APOE gene, and the replaced human region were co-transfected into the Taconic Biosciences C57BL/6N Tac ES cell line. Homologous recombination clones were isolated using positive puromycin selection, and humanized allele was obtained after Cas9-mediated gene editing. C57BL/6NTac-Apoeem7250_B-A02(APOE)Tac mice were used in the in vivo experiments described below.
APOE C57BL/6NTac-Apoeem7250 knock-in mice were divided into groups of 3 mice each. Each mouse received a single ICV bolus of 300 μg of modified oligonucleotide. A group of 3 mice received a single ICV bolus with PBS as a negative control.
Two weeks post treatment, mice were sacrificed and RNA was extracted from cortical brain tissue and spinal cord for quantitative real-time RT-PCR analysis of RNA expression of APOE using human primer probe set RTS3073 (described herein above). APOE RNA levels were normalized to mouse Ppia. Mouse Ppia was amplified using primer probe set m_cyclo24 (described herein above). Results are presented as percent human APOE RNA relative to the amount of human APOE RNA in PBS treated animals, (% control).

[5] = system: human APOE RNA; assay: Activity in APOE 1549 knock-in mice, single ICV bolus, 2 weeks (Example 7); assay type: in vivo; settings: single ICV bolus of 300 μg, two weeks post treatment
Method: Modified oligonucleotides described above were tested in APOE knock-in mice.
APOE knock-in mice (model 41549) were obtained from Taconic Biosciences. APOE knock-in mice were divided into groups of 2 mice each. Each mouse received a single intracerebroventricular (ICV) bolus of 300 μg of modified oligonucleotide. A group of 4 mice received a single ICV bolus with PBS as a negative control.
Two weeks post treatment, mice were sacrificed and RNA was extracted from cortical brain tissue and spinal cord for quantitative real-time RT-PCR analysis of RNA expression of APOE using primer probe set RTS3073 (described herein above). APOE RNA levels were normalized to mouse Ppia. Mouse Ppia was amplified using primer probe set m_cyclo24 (forward sequence TCGCCGCTTGCTGCA, designated herein as SEQ ID NO: 16; reverse sequence ATCGGCCGTGATGTCGA, designated herein as SEQ ID NO: 17; probe sequence […], designated herein as SEQ ID NO: 18). Results are presented as percent human APOE RNA relative to the amount of human APOE RNA in PBS treated animals, (% control). Each experiment is identified in separate tables below.

[6] = system: human APOE RNA; assay: Activity in APOE C57BL/6NTac-Apoeem7250 knock-in mice, single ICV bolus, 8 weeks (Example 11); assay type: in vivo; settings: for APOE RNA (% control) Cortex / APOE RNA (% control) Spinal Cord: single ICV bolus 300 μg, 8 weeks post treatment, normalized to mouse Ppia
How it was run: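 Human APOE knock-in C57BL/6NTac mice given one ICV bolus of 300 μg oligonucleotide; PBS-dosed group as control. At 8 weeks, cortex and spinal cord RNA measured by qRT-PCR (human probe RTS3073), normalized to mouse Ppia, expressed as % of PBS control.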

[7] = system: human APOE RNA; assay: Activity in APOE C57BL/6NTac-Apoeem7250 knock-in mice, single ICV bolus, 20 weeks (Example 13); assay type: in vivo; settings: single ICV bolus 300 μg, 20 weeks post treatment, normalized to mouse Ppia
How it was run: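 Knock-in mice (n=4) given a single ICV bolus of 300 μg oligonucleotide, PBS as control. After 20 weeks, human APOE RNA in cortex and spinal cord measured by RT-qPCR, normalized to mouse Ppia, expressed as % of PBS-treated animals.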

[8] = system: BJAB cells
Method: Human APOE modified oligonucleotides were tested for potential immunostimulatory properties in an in vitro human BJAB activation assay.
Human Burkitt lymphoma B cells, BJAB cells (DSMZ, Cat #ACC 757) were cultured in RPMI1640 medium containing 20% fetal bovine serum at 37° C. and 5% CO2. Cells were maintained at a density of 0.5-0.7×10^6 cells per milliliter. Cells were transferred to 50 mL conical Falcon tubes and centrifuged at 330 RCF for 5 minutes before being resuspended at a concentration of 7.5×10^4 cells per milliliter in RPMI culture medium containing penicillin and streptomycin. 50 μL of the cell suspension was added to a v-bottom tissue culture treated 96-well microplate. 11 μl of 10× concentrated modified oligonucleotides was then added to the plate for a final concentration of 1.6 μM and incubated for 24 hours at 37° C. and 5% CO2.
After a treatment period of 24 hours, total RNA was isolated from the cells and CCL22 RNA levels were measured by quantitative real-time RT-PCR. CCL22 RNA levels were measured by human primer-probe set RTS49260 (forward sequence [sequence], designated herein as SEQ ID NO: 19; reverse sequence [sequence], designated herein as SEQ ID NO: 20; probe sequence [sequence], designated herein as SEQ ID NO: 21). CCL22 RNA levels were normalized to total RNA content, as measured by GAPDH. Human GAPDH was measured using the human primer-probe set RTS104 (forward sequence [sequence], designated herein as SEQ ID NO: 10; reverse sequence [sequence], designated herein as SEQ ID NO: 11; probe sequence [sequence], designated herein as SEQ ID NO: 12). Levels of CCL22 RNA is presented log fold increase of CCL22, relative to untreated control cells (UTC). The assignment of the immunostimulatory properties of the test compounds is based on the immunostimulatory properties of the internal control compounds in each assay.

[9] = Cortex, C57BL/6NTac-Apoeem7250 knock-in mice, 4 weeks (Table 21)
[10] = Cortex, C57BL/6NTac-Apoeem7250 knock-in mice, 4 weeks (Table 22)
[11] = Spinal Cord, C57BL/6NTac-Apoeem7250 knock-in mice, 4 weeks (Table 21)
[12] = Spinal Cord, C57BL/6NTac-Apoeem7250 knock-in mice, 4 weeks (Table 22)

Substance	IC50 [1] [nM]	APOE RNA (% UTC) ([1]; 5 nM)	APOE RNA (% UTC) ([1]; 13 nM)	APOE RNA (% UTC) ([1]; 33 nM)	APOE RNA (% UTC) ([1]; 82 nM)	APOE RNA (% UTC) ([1]; 205 nM)	APOE RNA (% UTC) ([1]; 512 nM)	APOE RNA (% UTC) ([1]; 1,280 nM)	APOE RNA (% UTC) ([1]; 3,200 nM)	APOE RNA (% UTC) ([1]; 8,000 nM)	APOE RNA (% UTC) ([1]; 20,000 nM)	APOE RNA (% control) Cortex [2] [% control]	APOE RNA (% control) Spinal Cord [2] [% control]	APOE RNA (% control) Cortex [3, 9] [% control]	APOE RNA (% control) Cortex [3, 10] [% control]	APOE RNA (% control) Spinal Cord [3, 11] [% control]	APOE RNA (% control) Spinal Cord [3, 12] [% control]	APOE RNA (% control) Cortex [4] [% control]	APOE RNA (% control) Cortex [6] [% control]	APOE RNA (% control) Spinal Cord [6] [% control]	other results
1693102: 6-10-4 MOE gapmer CTTGGTGAATCTTTATTAAA, linkages ssssoszzzssssszssss (e[5mC]*eT*eT*eG*eGeT*dG[ms]dA[ms]dA[ms]dT*d[5mC]*dT*dT*dT*dA[ms]dT*eT*eA*eA*eA) [compound 1693102]	1170	89	95	87	92	80	64	48	32	22	10	69	41	61	55	48	72	51	58	43	APOE RNA (% control) Spinal Cord [4]: 51 % control; APOE RNA (% control) Cortex ([5]; Table 17): 60 % control; APOE RNA (% control) Spinal Cord ([5]; Table 17): 45 % control
Compound No. 1517853: comparator of WO 2022/066956; TTGGTGAATCTTTATTAAAC, sugar eeeeeddddddddddeeeee, linkages sooosssssssssssooss (MOE gapmer, mixed PS/PO linkages, chemistry not fully specified) [reference compound]	–	–	–	–	–	–	–	–	–	–	–	–	–	–	–	–	–	–	67	50	APOE RNA (% control) Cortex ([7]; cortex): 99 % control; APOE RNA (% control) Spinal Cord ([7]; spinal cord): 98 % control; inflammatory response in human BJAB cells [8]: highly inflammatory; APOE RNA (% control) Cortex ([5]; Table 16): 53 % control; APOE RNA (% control) Spinal Cord ([5]; Table 16): 65 % control; reduction of human APOE RNA in the cortex ([6]; APOE knock-in mouse model, 8 weeks post administration, assay of Example 11): 33%
1693101: 6-10-4 MOE gapmer CTTGGTGAATCTTTATTAAA, linkages sssssozzzssssszssss (e[5mC]*eT*eT*eG*eG*eTdG[ms]dA[ms]dA[ms]dT*d[5mC]*dT*dT*dT*dA[ms]dT*eT*eA*eA*eA) [compound 1693101]	4030	70	91	120	111	95	75	53	58	49	20	71	56	71	57	50	77	62	58	46	APOE RNA (% control) Cortex ([3]; cortex, 4 weeks post treatment, normalized to mouse Ppia): 57 % control; APOE RNA (% control) Spinal Cord ([3]; spinal cord, 4 weeks post treatment, normalized to mouse Ppia): 56 % control; APOE RNA (% control) Spinal Cord [4]: 55 % control; APOE RNA (% control) Cortex ([5]; Table 17): 79 % control; APOE RNA (% control) Spinal Cord ([5]; Table 17): 57 % control
